Data: US10849912B2, “Method of sensitizing cancer cells to the cytotoxic effects of apoptosis inducing ligands in cancer treatment” (The United States of America, as represented by the …, priority 2016, dated 2020)
Entries after “also recorded” stand apart in the source; their conditions may differ.

Columns and labels:
[1] = system: renal carcinoma cell lines (ACHN, SN12C, Caki-1, TK-10, UO-31); test: Sensitization of renal carcinoma cells to TRAIL apoptosis, percentage decrease in cell number; assay type: cell-based; settings: for percentage decrease in cell number, agent alone: absence of TRAIL, FIGS. 13B-17B, 13C-17C
Text: (§1) This example provides a comparison of the activities of compound 1 with the Smac mimetics birinapant, GDC-0152, and LCL-161 and with the Bcl-2 antagonists ABT-199 and ABT-737 for sensitization of renal carcinoma and melanoma cells to TRAIL apoptosis.
(§2) The results for compound 1 are shown graphically in FIGS. 13A-22A. The results for Smac mimetics birinapant, GDC-0152, and LCL-161 are shown graphically in FIGS. 13B-22B. The results for Bcl-2 antagonists ART-199 and ABT-737 are shown graphically in FIGS. 13C-22C, FIGS. 13A-22A, 13B-22B, and 13C-22C depict the percentage decrease in cell number as a function of concentration. For FIGS. 13B-22B and 13C-22C, the dose response curve was obtained for one of the listed agents.

[2] = system: melanoma cells (M14, SK-MEL-28, UACC-62, SK-MEL-5, MALME-3M); test: Sensitization of melanoma cells to TRAIL apoptosis, percentage decrease in cell number; assay type: cell-based; settings: for percentage decrease in cell number, agent alone: absence of TRAIL, FIGS. 18B-22B, 18C-22C
Text: as §1, §2

caspase-8 = test: Western blot of caspase-8 activation in ACHN cells treated with compound, with or without poly IC; assay type: cell-based; settings: compound 125 nM-1 μM overnight, then 10 ug/ml polyIC for 3 hours
Protocol: (§3) ACHN cells were grown in RPMI (RPMI, 5% FBS, Pen-strep, NEAA, HEPES, Glutamax, Sodium Pyruvate, 2ME), 2×10^6 cells/well were plated in 6 well plates and grown overnight, on day 2 compound 9 or compound 1 were added, including duplicate plates and incubated overnight. On day 3 either media or 10 ug/ml polyIC was added for 3 hours. Cells were lysed in RIPA buffer (30 mM Tris-HCL pH 7.5, 150 mM NaCl, 10% glycerol, 1% Triton X-100) supplemented with Pierce Halt Protease and Phosphatase Inhibitor and 40 μM ZVAD, the RIPA buffer also contained Pierce Universal Nuclease. Protein concentrations were measured using the Pierce BCA Protein Assay (Thermo Fisher Scientific, Waltham, Mass.), Twenty micrograms of each sample was run on a Bolt Gel (Thermo Fisher Scientific), transferred to a PVDF membrane using the BioRad Trans-Blot Turbo Transfer System (BioRad, Hercules, Calif.), briefly placed in Methanol, dried, rehydrated, and blocked in Pierce Start Block buffer. […]

SKMEL28 melanoma cells = test: Effect of pan caspase inhibitor ZVAD-FMK on growth inhibition by poly IC plus compound, MTS; assay type: cell-based, human; settings: compound 1000 nM for 16-18 h, ZVAD-FMK 40 μM for 2 h, poly IC 20-24 h
Protocol: To assess the effects of pan caspase inhibitor ZVAD, SKMEL28 melanoma cells were treated with compounds 9 and 1 for 16-18 h. Subsequently, ZVAD-FMK (40 μM) or DMSO was added for 2 h followed by 20-24 h incubation in the presence or absence of poly IC. Cell viability was assessed by addition of MTS during the last four hours of poly IC treatment.
The growth inhibition as a function of poly IC concentration at 1000 nM concentrations of compounds 9 and 1 was determined, and the results shown in FIGS. 10A and 10B, respectively.

cFLIP = test: Western blot of cFLIP levels in ACHN cells treated with compound, with or without poly IC; assay type: cell-based; settings: compound 125 nM-1 μM overnight, FIGS. 5A and 5B
Protocol: as §3

human M14 melanoma = test: Xenograft model of human M14 melanoma, intratumoral compound; assay type: in vivo, athymic nude mice; settings: 20 mg/Kg, once per week for four weeks
Protocol: Female nude athymic mice were obtained from Charles River Laboratory. All mice were kept under specific pathogen-free conditions with water and food given ad libitum. All experiments with mice were performed in compliance with the principles and procedures outlined in the National Institutes of Health Guide for the Care and Use of Animals and were approved by the National Cancer Institute at Frederick Animal Care and Use Committee.
For in vivo treatments with compounds 9 and 1, compound 9 and compound 1 stock solutions (0.5M and 0.25M in DMSO respectively) were diluted in 33% Trappsol and DMSO at a ratio of 7:1 and administered intratumorally or at the base of tumor in a volume of 20 ul at a dose of 20 mg/Kg of body weight. […]
Mice (nude athymic, female, 6-8-week old, n=5), were implanted subcutaneously with 0.2 ml of M14 melanoma cells (1×10^6/mouse) into the right flank. […] The appearance and growth of tumors were monitored twice every week. The greatest longitudinal diameter (length) and the greatest transverse diameter (width) of a palpable tumor were measured to the nearest 0.1 mm using a caliper. Tumor volume (mm^3) was calculated by the ellipsoidal formula Tumor volume=[…]. […]

SK MEL28 melanoma cells [3] = test: Effect of bafilomycin on sensitization to poly IC, MTS cell viability; assay type: cell-based, human; settings: 50 nM bafilomycin A, poly IC 36-48 h
Protocol: (§4) For all experiments, cells (ACHN (renal carcinoma), M14, SK MEL28, and Malme (human melanoma lines)) were plated at a concentration of 5000 cells/well overnight. All treatments were carried out the following day.
To inhibit TLR 3 signaling, cells were treated with compound 9, compound 1, or compound 10 for 4 hours followed by addition of 50 nM of Balfilomycin A or DMSO for 2.5 h. Subsequently poly IC was added for 36-48 h and cell viability was assessed by addition of MTS during the last four hours of Poly IC treatment. The results for compounds 9, 1, and 10 are depicted in FIG. 6.

M14 melanoma cells = test: Titration of sensitization to TRAIL, MTS cell viability; assay type: cell-based, human; settings: compound 0.97 nM-2000 nM for 3 or 24 h, then 10 ng/ml TRAIL for 24 h
Protocol: as §4
(§5) For titration experiments in the presence or absence of TRAIL, cells were treated with various doses of compound 8 (0.97 nM-2000 nM) for 3 or 24 h followed by 10 ng/ml of recombinant TRAIL for 24 h. Cell viability was assessed by addition of MTS during the last four hours of TRAIL treatment. The results with SK MEL28, M14, and Malme cells are depicted in FIGS. 7A-7C, respectively.
(§6) Titration experiments were conducted as described in Example 5.

Malme 3M melanoma cells = test: as above; assay type: cell-based, human; settings: Malme (Malme 3M); compound 0.97 nM-2000 nM for 3 or 24 h, then 10 ng/ml TRAIL for 24 h
Protocol: as §4, §5, §6

SK MEL28 melanoma cells [4] = test: as above; assay type: cell-based, human; settings: compound 0.97 nM-2000 nM for 3 or 24 h, then 10 ng/ml TRAIL for 24 h
Protocol: as §4, §5

Molecule: CC1=C(C)C(=O)OC([C@](C)(O)[C@]2(O)CC[C@@]3(O)C4CC=C5C(=O)C=CC(=O)[C@]5(C)C4CC[C@]23C)C1 (stereo partly shown)
- melting point: 176 to 178 °C

Molecule: CC1(C)CCC(CN2CCN(c3ccc(C(=O)NS(=O)(=O)c4ccc(NCC5CCOCC5)c([N+](=O)[O-])c4)c(Oc4cnc5[nH]ccc5c4)c3)CC2)=C(c2ccc(Cl)cc2)C1 [ABT-199]
- percentage decrease in cell number, agent alone [1]: little to no response due to concentration
- percentage decrease in cell number, agent alone [2]: little to no response due to concentration

Molecule: CN(C)CC[C@H](CSc1ccccc1)Nc1ccc(S(=O)(=O)NC(=O)c2ccc(N3CCN(Cc4ccccc4-c4ccc(Cl)cc4)CC3)cc2)cc1[N+](=O)[O-] [ABT-737]
- percentage decrease in cell number, agent alone [1]: little to no response due to concentration
- percentage decrease in cell number, agent alone [2]: little to no response due to concentration

Molecule: CN[C@@H](C)C(=O)N[C@H](C(=O)N1CCC[C@H]1C(=O)Nc1snnc1-c1ccccc1)C1CCCCC1 [GDC-0152]
- percentage decrease in cell number, agent alone [1]: little to no response due to concentration
- percentage decrease in cell number, agent alone [2]: little to no response due to concentration

Molecule: CN[C@@H](C)C(=O)N[C@H](C(=O)N1CCC[C@H]1c1nc(C(=O)c2ccc(F)cc2)cs1)C1CCCCC1 [LCL-161]
- percentage decrease in cell number, agent alone [1]: little to no response due to concentration
- percentage decrease in cell number, agent alone [2]: little to no response due to concentration

Molecule: CC[C@H](NC(=O)[C@H](C)NC)C(=O)N1C[C@@H](O)C[C@H]1Cc1c(-c2[nH]c3cc(F)ccc3c2C[C@@H]2C[C@H](O)CN2C(=O)[C@H](CC)NC(=O)[C@H](C)NC)[nH]c2cc(F)ccc12 [birinapant]
- percentage decrease in cell number, agent alone [1]: little to no response due to concentration
- percentage decrease in cell number, agent alone [2]: little to no response due to concentration

Molecule: CC(=O)OC[C@]12CC[C@H]3[C@@H](C[C@H]4O[C@]45CC=CC(=O)[C@]35C)[C@]1(O)CC[C@@]2(O)[C@@](C)(O)[C@H]1CC(C)=C(C)C(=O)O1 [compound 1, physachenolide C]
- sensitization to TRAIL apoptosis ([1]; 50 ng/mL TRAIL): superior sensitizer
- promoting caspase-8 activation in response to subsequent exposure to poly IC (caspase-8): more active than compound 9
- reduction in cell number by poly IC in combination with compound, in presence of ZVAD-FMK (SKMEL28 melanoma cells): completely blocked
- sensitization to TRAIL apoptosis ([2]; 25 ng/mL TRAIL): significant activity
- reducing the levels of cFLIPL+S (cFLIP): more active than compound 9
- observation at the tumor site accompanying decrease in tumor burden (human M14 melanoma): massive tumor destruction and scabbing at the tumor site
- tumor growth and volume (tumor burden) (human M14 melanoma; versus vehicle control, ****P<0.0001, 20 mg/kg): significant reduction in tumor growth and volume
- apoptosis by the compound and poly IC combination after incubation with bafilomycin-A1 (SK MEL28 melanoma cells [3]): significantly reduced subsequent apoptosis

Molecule: biotinylated derivative of 4β-hydroxywithanolide E [compound 8]
- sensitization to apoptosis by TRAIL (M14 melanoma cells): sensitized; also recorded: more potent than compound 1 at lower concentrations
- sensitization to apoptosis by TRAIL (Malme 3M melanoma cells): sensitized; also recorded: more potent than compound 1 at lower concentrations
- sensitization to apoptosis by TRAIL (SK MEL28 melanoma cells [4]): sensitized
